Assay type in all cases: functional, cell-based
Assay [1] relates to Bel-7402. Put plainly: Cytotoxicity against human Bel7402 cells after 96 hrs by MTT assay. Particulars: Bel-7402, 96 h.
Assay [2] relates to MCF7. Put plainly: Cytotoxicity against human MCF7 cells after 96 hrs by MTT assay. Particulars: MCF7, 96 h. Background: Tetrazolium assays rely on reduction of a dye to a coloured formazan, in cell work by metabolically active cells.
Assay [3] deals with A549. Put plainly: Cytotoxicity against human A549 cells after 96 hrs by MTT assay. The conditions noted are these: A549, 96 h.
The subject of assay [4] is KETR3. Put plainly: Cytotoxicity against human Ketr3 cells after 96 hrs by MTT assay. Particulars: KETR3, 96 h.
Assay [5] concerns BGC-823. Put plainly: Cytotoxicity against human BGC823 cells after 96 hrs by MTT assay. The conditions noted are these: BGC-823, 96 h.
Assay [6] has as its system HCT-8. Put plainly: Cytotoxicity against human HCT8 cells after 96 hrs by MTT assay. The conditions noted are these: HCT-8, 96 h.

As a reminder, the IC50 is the concentration that inhibits the measured activity by half. The low end stands for inhibition by little substance, the high end for a need for much substance.

Take `O=c1oc2cc(/C=C/c3ccc(O)c(O)c3)oc(=O)c2c2cc(O)c(O)cc12` [PHELLIGRIDIN D]: the IC50 was 8 µM in assay [1]; 37 µM in assay [2]; 16 µM in assay [3]; 0.09 µM in assay [4]; over 131 µM in assay [5]; 99 µM in assay [6].
Consider `CC1=CC(=O)C2(O1)C(c1cc3oc(=O)c4cc(O)c(O)cc4c3c(=O)o1)=Cc1cc(O)c(O)cc12` (stereo not given) [PHELLIGRIDIN E], for which the IC50 in assay [1] was 55 µM; in assay [2], 70 µM; in assay [3] it was 79 µM; in assay [4], over 0.105 µM; in assay [5], 96 µM; in assay [6] it was over 105 µM.
As to `O=c1oc2cc(/C=C/c3ccc(O)cc3)oc(=O)c2c2cc(O)c(O)cc12` [PHELLIGRIDIN C], the IC50 was 10 µM in assay [1]; 72 µM in assay [2]; 12 µM in assay [3]; 0.094 µM in assay [4]; over 137 µM in assay [5]; 126 µM in assay [6].
In the case of `CC1=CC(=O)C2(O1)c1c(cc(/C=C/c3ccc(O)c(O)c3)oc1=O)OC2c1ccc(O)c(O)c1` (stereo not given) [INOSCAVIN A], the IC50 in assay [1] is 88 µM; in assay [2], over 108 µM; in assay [3] it was over 108 µM; in assay [4], over 0.108 µM; in assay [5], over 108 µM; in assay [6] it was over 108 µM.
Turning to `CC[C@@]1(O)C(=O)OCc2c1cc1n(c2=O)Cc2cc3c(CN(C)C)c(O)ccc3nc2-1` [TOPOTECAN], the IC50 in assay [1] amounted to 1.2 µM; in assay [2] it was 1.8 µM; in assay [3], 3.2 µM; in assay [4], 0.0049 µM; in assay [5], 4.3 µM; in assay [6], 1.5 µM.
`COC1(CC(C)=O)Oc2cc(/C=C/c3ccc(O)c(O)c3)oc(=O)c2/C1=C/c1ccc(O)c(O)c1` (stereo not given) [PHELLIGRIDIN F]: the IC50 is 46 µM in assay [1]; 85 µM in assay [2]; 84 µM in assay [3]; over 0.104 µM in assay [4]; 92 µM in assay [5]; over 104 µM in assay [6].
As to `CC(=O)/C=C/c1ccc(O)c(O)c1`, the IC50 in assay [1] is 153 µM; in assay [2] it was 141 µM; in assay [3], over 280 µM; in assay [4], 0.245 µM; in assay [5] it was 243 µM; in assay [6] it was 227 µM.
As for `Cc1cc2oc(=O)c3cc(O)c(O)cc3c2c(=O)o1` [PHELLIGRIDIN A], the IC50 is 110 µM in assay [1]; 109 µM in assay [2]; over 192 µM in assay [3]; over 0.192 µM in assay [4]; 181 µM in assay [5]; over 192 µM in assay [6].
`COC(=O)c1c(O)cc(/C=C/c2ccc(O)c(O)c2)oc1=O` [PHELLIGRIDIN B]: the IC50 in assay [1] is 50 µM; in assay [2], 143 µM; in assay [3], over 164 µM; in assay [4], 0.144 µM; in assay [5], 146 µM; in assay [6], 139 µM.
For the compound `CC(=O)/C=C(O)/C=C/c1ccc(O)c(O)c1` [HISPOLON], the concentration for half-maximal inhibition (IC50) was determined as 38 µM in assay [1]; 25 µM in assay [2]; 183 µM in assay [3]; 0.206 µM in assay [4]; 205 µM in assay [5]; 199 µM in assay [6].

These data come from ChEMBL document CHEMBL1151203, “Phelligridins C-F: cytotoxic pyrano[4,3-c][2]benzopyran-1,6-dione and furo[3,2-c]pyran-4-one derivatives from the fungus Phellinus igniarius” (J Nat Prod, 2004).
